Columns and labels:
[1] = target: Cyclin-dependent kinase 17 (Homo sapiens) (UniProt Q00537); details: Compound concentration 1000.0 nM
[2] = target: Tyrosine-protein kinase Srms (Homo sapiens) (UniProt Q9H3Y6); details: Compound concentration 1000.0 nM
[3] = system: Hepatocyte growth factor receptor (Homo sapiens), P08581 [M1250T]; details: Compound concentration 1000.0 nM
[4] = target: RAF proto-oncogene serine/threonine-protein kinase (Homo sapiens) (UniProt P04049); details: Compound concentration 1000.0 nM
[5] = target: NT-3 growth factor receptor (Homo sapiens) (UniProt Q16288); details: Compound concentration 1000.0 nM
[6] = target: Mitogen-activated protein kinase kinase kinase 13 (Homo sapiens) (UniProt O43283); details: Compound concentration 1000.0 nM
[7] = system: Phosphatidylinositol 4,5-bisphosphate 3-kinase catalytic subunit alpha isoform (Homo sapiens), P42336 [E545K]; details: Compound concentration 1000.0 nM
[8] = target: MAP kinase-interacting serine/threonine-protein kinase 1 (Homo sapiens) (UniProt Q9BUB5); details: Compound concentration 1000.0 nM
[9] = target: Vasopressin V1a receptor (Homo sapiens) (UniProt P37288); assay: V1 a (h) Eurofins-Cerep binding assay; design: ligand concentration 0.3 nM; details: filed as agonist, Compound concentration 10.0 uM
[10] = target: Tyrosine-protein kinase Fgr (Homo sapiens) (UniProt P09769); details: Compound concentration 1000.0 nM
[11] = target: Mitogen-activated protein kinase kinase kinase kinase 1 (Homo sapiens) (UniProt Q92918); details: Compound concentration 1000.0 nM
[12] = target: Platelet-derived growth factor receptor beta (Homo sapiens) (UniProt P09619); details: Compound concentration 1000.0 nM
[13] = target: Serine/threonine-protein kinase 3 (Homo sapiens) (UniProt Q13188); details: Compound concentration 1000.0 nM
[14] = target: Cyclin-dependent kinase-like 3 (Homo sapiens) (UniProt Q8IVW4); details: Compound concentration 1000.0 nM
[15] = target: Adenosine receptor A2a (Homo sapiens) (UniProt P29274); assay: A2A (h) Eurofins-Cerep binding assay; design: ligand concentration 6 nM; details: filed as agonist, Compound concentration 10.0 uM
[16] = target: Serine/threonine-protein kinase SIK3 (Homo sapiens) (UniProt Q9Y2K2); details: Compound concentration 1000.0 nM
[17] = system: Tyrosine-protein kinase ABL1 (Homo sapiens), P00519 [F317L]; details: Compound concentration 1000.0 nM
[18] = target: 5-hydroxytryptamine receptor 7 (Homo sapiens) (UniProt P34969); assay: 5-HT7 (h) Eurofins-Cerep binding assay; design: ligand concentration 4 nM; details: filed as agonist, Compound concentration 10.0 uM
[19] = target: Receptor-interacting serine/threonine-protein kinase 1 (Homo sapiens) (UniProt Q13546); details: Compound concentration 1000.0 nM
[20] = target: Serine/threonine-protein kinase Nek11 (Homo sapiens) (UniProt Q8NG66); details: Compound concentration 1000.0 nM
[21] = target: Serine/threonine-protein kinase mTOR (Homo sapiens) (UniProt P42345); details: Compound concentration 1000.0 nM
[22] = target: Cyclin-dependent kinase-like 1 (Homo sapiens) (UniProt Q00532); details: Compound concentration 1000.0 nM
[23] = target: Dual specificity protein kinase CLK3 (Homo sapiens) (UniProt P49761); details: Compound concentration 1000.0 nM
[24] = target: Protein-tyrosine kinase 2-beta (Homo sapiens) (UniProt Q14289); details: Compound concentration 1000.0 nM
[25] = target: Casein kinase I isoform delta (Homo sapiens) (UniProt P48730); details: Compound concentration 1000.0 nM
[26] = target: Ribosomal protein S6 kinase alpha-6 (Homo sapiens) (UniProt Q9UK32); details: Compound concentration 1000.0 nM
[27] = target: Dual specificity tyrosine-phosphorylation-regulated kinase 2 (Homo sapiens) (UniProt Q92630); details: Compound concentration 1000.0 nM
[28] = target: SRSF protein kinase 3 (Homo sapiens) (UniProt Q9UPE1); details: Compound concentration 1000.0 nM
[29] = target: Mitogen-activated protein kinase kinase kinase 4 (Homo sapiens) (UniProt Q9Y6R4); details: Compound concentration 1000.0 nM
[30] = target: Serine/threonine-protein kinase NIM1 (Homo sapiens) (UniProt Q8IY84); details: Compound concentration 1000.0 nM
[31] = target: RAC-beta serine/threonine-protein kinase (Homo sapiens) (UniProt P31751); details: Compound concentration 1000.0 nM
[32] = target: Interferon-induced, double-stranded RNA-activated protein kinase (Homo sapiens) (UniProt P19525); details: Compound concentration 1000.0 nM
[33] = target: Mitogen-activated protein kinase 3 (Homo sapiens) (UniProt P27361); details: Compound concentration 1000.0 nM
[34] = target: Angiotensin-converting enzyme (Homo sapiens) (UniProt P12821); assay: ACE (h) Eurofins-Cerep enzyme and uptake assay; details: Compound concentration 10.0 uM
[35] = target: Motilin receptor (Homo sapiens) (UniProt O43193); assay: motilin (h Eurofins-Cerep binding assay; design: ligand concentration 0.05 nM; details: filed as agonist, Compound concentration 10.0 uM
[36] = target: Serine/threonine-protein kinase 16 (Homo sapiens) (UniProt O75716); details: Compound concentration 1000.0 nM
[37] = target: Serine/threonine-protein kinase 36 (Homo sapiens) (UniProt Q9NRP7); details: Compound concentration 1000.0 nM
[38] = target: Tyrosine-protein kinase Fes/Fps (Homo sapiens) (UniProt P07332); details: Compound concentration 1000.0 nM
[39] = system: NCI-H146; assay: CellTiter-Glo Luminescent Cell Viability Assay (BCL-XL dependent cell line H146); type: functional, cell-based; details: Homo sapiens
[40] = target: Discoidin domain-containing receptor 2 (Homo sapiens) (UniProt Q16832); details: Compound concentration 1000.0 nM
[41] = target: Mitogen-activated protein kinase kinase kinase 19 (Homo sapiens) (UniProt Q56UN5); details: Compound concentration 1000.0 nM
[42] = target: Mitogen-activated protein kinase kinase kinase 9 (Homo sapiens) (UniProt P80192); details: Compound concentration 1000.0 nM
[43] = system: Phosphatidylinositol 4,5-bisphosphate 3-kinase catalytic subunit alpha isoform (Homo sapiens), P42336 [E542K]; details: Compound concentration 1000.0 nM
[44] = target: Serine/threonine-protein kinase tousled-like 2 (Homo sapiens) (UniProt Q86UE8); details: Compound concentration 1000.0 nM
[45] = target: Rho-associated protein kinase 2 (Homo sapiens) (UniProt O75116); details: Compound concentration 1000.0 nM

Chain of Tyrosine-protein kinase Fgr (Homo sapiens) (P09769 2-529 limits assumed): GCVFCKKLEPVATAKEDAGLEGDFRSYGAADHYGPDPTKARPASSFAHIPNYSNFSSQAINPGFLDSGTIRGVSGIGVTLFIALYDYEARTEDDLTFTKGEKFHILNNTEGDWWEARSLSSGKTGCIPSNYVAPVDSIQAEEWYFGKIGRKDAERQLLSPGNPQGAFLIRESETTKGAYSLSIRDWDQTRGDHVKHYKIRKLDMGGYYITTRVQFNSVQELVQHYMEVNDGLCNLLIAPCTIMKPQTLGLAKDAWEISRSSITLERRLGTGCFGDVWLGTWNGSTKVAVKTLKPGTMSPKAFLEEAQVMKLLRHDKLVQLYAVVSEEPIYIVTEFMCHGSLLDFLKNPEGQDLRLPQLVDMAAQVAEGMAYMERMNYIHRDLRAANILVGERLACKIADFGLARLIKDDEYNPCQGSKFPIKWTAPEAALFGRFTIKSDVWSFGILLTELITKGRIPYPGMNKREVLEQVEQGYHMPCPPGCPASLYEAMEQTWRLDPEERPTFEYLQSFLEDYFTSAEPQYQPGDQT
Chain of Serine/threonine-protein kinase tousled-like 2 (Homo sapiens) (Q86UE8 whole entry, looked up): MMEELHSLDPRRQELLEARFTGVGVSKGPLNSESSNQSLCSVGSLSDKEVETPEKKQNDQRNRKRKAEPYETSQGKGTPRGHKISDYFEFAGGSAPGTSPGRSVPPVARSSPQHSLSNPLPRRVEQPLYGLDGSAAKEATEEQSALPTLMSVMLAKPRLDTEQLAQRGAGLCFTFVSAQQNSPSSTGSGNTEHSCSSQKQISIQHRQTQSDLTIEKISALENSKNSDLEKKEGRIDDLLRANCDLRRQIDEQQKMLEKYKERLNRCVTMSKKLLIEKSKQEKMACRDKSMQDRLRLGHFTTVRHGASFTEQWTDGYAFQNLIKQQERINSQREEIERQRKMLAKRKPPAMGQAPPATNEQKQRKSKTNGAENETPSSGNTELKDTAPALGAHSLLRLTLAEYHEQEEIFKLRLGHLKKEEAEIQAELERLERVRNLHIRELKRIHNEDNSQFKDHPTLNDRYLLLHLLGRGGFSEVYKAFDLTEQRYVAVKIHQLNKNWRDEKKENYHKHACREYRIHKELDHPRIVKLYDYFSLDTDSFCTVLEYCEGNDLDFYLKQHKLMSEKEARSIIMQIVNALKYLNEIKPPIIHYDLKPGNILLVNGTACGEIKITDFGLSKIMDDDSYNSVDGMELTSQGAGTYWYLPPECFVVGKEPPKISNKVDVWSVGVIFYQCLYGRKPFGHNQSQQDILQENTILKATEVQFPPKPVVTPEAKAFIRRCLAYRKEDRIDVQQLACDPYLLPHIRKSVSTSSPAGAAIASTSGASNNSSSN
Chain of Phosphatidylinositol 4,5-bisphosphate 3-kinase catalytic subunit alpha isoform (Homo sapiens), P42336 [E542K] (P42336 whole entry E542K, canonical isoform): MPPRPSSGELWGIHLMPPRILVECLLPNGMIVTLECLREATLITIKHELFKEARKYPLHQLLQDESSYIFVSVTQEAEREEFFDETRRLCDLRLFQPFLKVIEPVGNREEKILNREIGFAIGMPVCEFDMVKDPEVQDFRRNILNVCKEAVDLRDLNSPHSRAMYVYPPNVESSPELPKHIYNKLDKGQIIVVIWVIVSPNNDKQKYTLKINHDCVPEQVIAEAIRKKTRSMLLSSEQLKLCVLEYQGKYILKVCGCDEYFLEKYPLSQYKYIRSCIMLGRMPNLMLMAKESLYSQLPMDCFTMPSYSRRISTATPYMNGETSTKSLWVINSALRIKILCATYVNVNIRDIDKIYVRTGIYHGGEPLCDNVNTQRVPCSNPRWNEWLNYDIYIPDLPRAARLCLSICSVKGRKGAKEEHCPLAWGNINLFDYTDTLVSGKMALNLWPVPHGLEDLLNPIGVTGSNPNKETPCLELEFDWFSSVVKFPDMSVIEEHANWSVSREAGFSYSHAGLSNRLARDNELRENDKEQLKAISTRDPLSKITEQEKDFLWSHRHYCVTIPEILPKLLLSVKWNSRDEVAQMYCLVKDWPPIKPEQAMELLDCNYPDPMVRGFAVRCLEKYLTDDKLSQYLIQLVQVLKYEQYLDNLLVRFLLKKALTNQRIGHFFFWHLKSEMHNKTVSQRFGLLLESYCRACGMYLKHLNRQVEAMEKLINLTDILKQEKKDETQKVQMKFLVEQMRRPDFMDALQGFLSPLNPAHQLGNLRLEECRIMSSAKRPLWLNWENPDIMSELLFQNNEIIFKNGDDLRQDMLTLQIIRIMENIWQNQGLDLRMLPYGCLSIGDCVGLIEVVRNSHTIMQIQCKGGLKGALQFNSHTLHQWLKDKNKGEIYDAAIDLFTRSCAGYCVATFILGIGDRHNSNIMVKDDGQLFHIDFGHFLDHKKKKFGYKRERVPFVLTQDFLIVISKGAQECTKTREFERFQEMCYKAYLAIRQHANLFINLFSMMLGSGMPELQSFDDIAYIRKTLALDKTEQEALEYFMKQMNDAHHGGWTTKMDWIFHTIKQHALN
Chain of Cyclin-dependent kinase-like 1 (Homo sapiens) (Q00532 whole entry): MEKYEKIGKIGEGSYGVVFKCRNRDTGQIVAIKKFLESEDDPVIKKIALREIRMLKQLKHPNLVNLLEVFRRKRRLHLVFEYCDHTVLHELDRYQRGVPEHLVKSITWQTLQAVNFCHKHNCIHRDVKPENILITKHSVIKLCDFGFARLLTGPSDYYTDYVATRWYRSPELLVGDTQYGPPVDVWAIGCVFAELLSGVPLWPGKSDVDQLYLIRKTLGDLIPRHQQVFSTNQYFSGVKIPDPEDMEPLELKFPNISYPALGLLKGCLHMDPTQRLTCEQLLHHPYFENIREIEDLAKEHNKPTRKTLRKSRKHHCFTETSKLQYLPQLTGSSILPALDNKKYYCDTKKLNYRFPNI
Chain of Interferon-induced, double-stranded RNA-activated protein kinase (Homo sapiens) (P19525 whole entry): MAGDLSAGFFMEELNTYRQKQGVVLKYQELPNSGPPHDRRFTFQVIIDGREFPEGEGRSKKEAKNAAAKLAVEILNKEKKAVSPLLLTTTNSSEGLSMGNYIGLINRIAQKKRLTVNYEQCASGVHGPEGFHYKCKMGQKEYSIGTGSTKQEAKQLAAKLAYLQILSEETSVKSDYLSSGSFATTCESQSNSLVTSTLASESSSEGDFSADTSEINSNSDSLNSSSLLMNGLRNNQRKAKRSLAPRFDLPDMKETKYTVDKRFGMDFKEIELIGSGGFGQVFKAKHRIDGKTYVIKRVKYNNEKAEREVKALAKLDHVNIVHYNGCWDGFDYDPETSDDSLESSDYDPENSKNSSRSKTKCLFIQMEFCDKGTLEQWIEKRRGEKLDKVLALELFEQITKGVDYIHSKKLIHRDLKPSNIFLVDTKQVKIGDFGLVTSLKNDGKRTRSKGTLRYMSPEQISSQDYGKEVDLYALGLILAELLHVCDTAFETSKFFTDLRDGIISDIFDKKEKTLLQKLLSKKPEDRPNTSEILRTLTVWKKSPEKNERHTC
Chain of Vasopressin V1a receptor (Homo sapiens) (P37288 whole entry, looked up): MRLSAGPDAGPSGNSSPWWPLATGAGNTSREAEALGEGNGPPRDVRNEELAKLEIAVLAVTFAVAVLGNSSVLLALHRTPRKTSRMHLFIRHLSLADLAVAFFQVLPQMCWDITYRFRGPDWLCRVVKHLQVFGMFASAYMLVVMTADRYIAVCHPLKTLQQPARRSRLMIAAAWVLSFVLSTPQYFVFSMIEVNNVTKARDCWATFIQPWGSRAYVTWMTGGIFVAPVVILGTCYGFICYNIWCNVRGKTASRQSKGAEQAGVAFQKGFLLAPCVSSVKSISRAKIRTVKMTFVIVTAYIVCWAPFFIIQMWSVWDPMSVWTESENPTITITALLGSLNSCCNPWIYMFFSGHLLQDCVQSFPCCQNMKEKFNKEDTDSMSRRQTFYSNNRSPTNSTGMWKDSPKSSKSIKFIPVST
Chain of Platelet-derived growth factor receptor beta (Homo sapiens) (P09619 whole entry): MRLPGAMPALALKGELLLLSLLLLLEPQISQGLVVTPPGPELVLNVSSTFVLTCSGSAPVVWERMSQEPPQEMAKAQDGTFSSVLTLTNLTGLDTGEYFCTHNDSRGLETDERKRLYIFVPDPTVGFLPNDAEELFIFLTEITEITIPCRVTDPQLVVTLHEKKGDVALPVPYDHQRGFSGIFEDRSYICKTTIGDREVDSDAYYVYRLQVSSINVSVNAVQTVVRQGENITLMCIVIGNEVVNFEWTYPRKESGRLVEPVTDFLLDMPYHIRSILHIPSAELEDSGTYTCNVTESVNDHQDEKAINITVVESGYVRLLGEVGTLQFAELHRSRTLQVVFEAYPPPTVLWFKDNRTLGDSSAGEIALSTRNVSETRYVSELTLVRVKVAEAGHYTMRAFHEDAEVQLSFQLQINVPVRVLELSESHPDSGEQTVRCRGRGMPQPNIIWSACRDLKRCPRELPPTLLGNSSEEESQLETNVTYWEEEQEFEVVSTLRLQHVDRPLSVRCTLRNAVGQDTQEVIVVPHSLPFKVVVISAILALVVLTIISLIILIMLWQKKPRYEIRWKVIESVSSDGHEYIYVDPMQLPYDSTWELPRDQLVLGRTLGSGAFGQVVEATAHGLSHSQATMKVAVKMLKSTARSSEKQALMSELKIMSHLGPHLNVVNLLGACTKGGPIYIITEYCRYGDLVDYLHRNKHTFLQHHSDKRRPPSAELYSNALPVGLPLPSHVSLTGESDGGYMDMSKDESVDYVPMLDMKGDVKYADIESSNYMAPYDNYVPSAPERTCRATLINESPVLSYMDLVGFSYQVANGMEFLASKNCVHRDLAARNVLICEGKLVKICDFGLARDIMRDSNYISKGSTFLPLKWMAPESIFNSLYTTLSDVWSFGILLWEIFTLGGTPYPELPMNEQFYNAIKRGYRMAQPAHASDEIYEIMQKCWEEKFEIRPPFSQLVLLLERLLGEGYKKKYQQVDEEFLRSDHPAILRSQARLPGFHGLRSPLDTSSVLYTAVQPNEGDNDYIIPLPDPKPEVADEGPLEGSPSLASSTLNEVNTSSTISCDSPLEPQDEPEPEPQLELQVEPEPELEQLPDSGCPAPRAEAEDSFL
Chain of Phosphatidylinositol 4,5-bisphosphate 3-kinase catalytic subunit alpha isoform (Homo sapiens), P42336 [E545K] (P42336 whole entry E545K, canonical isoform): as the sequence (P42336 whole entry E542K, canonical isoform) above, with K542E, E545K counted along it

## O=C(NS(=O)(=O)c1ccc(NCC2CCOCC2)c([N+](=O)[O-])c1)c1ccc(N2CCN(Cc3ccc(C(F)(F)F)cc3-c3ccc(Cl)cc3)CC2)cc1Oc1cnc2[nH]ccc2c1 [A-1210227]
[1]
  residual activity: 100%
[2]
  residual activity: 79%
[3]
  residual activity: 86%
[4]
  residual activity: 100%
[5]
  residual activity: 100%
[6]
  residual activity: 91%
[7]
  residual activity: 100%
[8]
  residual activity: 99%
[9]
  % Inhibition of Control Specific Binding (Mean n=2): 3.5%
[10]
  residual activity: 100%
[11]
  residual activity: 98%
[12]
  residual activity: 100%
[13]
  residual activity: 100%
[14]
  residual activity: 95%
[15]
  % Inhibition of Control Specific Binding (Mean n=2): 1.3%
[16]
  residual activity: 76%
[17]
  residual activity: 100%
[18]
  % Inhibition of Control Specific Binding (Mean n=2): 10.2%
[19]
  residual activity: 99%
[20]
  residual activity: 97%
[21]
  residual activity: 100%
[22]
  residual activity: 100%
[23]
  residual activity: 100%
[24]
  residual activity: 100%
[25]
  residual activity: 80%
[26]
  residual activity: 100%
[27]
  residual activity: 100%
[28]
  residual activity: 100%
[29]
  residual activity: 94%
[30]
  residual activity: 94%
[31]
  residual activity: 100%
[32]
  residual activity: 94%
[33]
  residual activity: 98%
[34]
  % Inhibition of Control Values (Mean n=2): -32.2%
[35]
  % Inhibition of Control Specific Binding (Mean n=2): -13%
[36]
  residual activity: 91%
[37]
  residual activity: 88%
[38]
  residual activity: 100%
[39]
  EC50: > 5 µM (not active)
[40]
  residual activity: 90%
[41]
  residual activity: 71%
[42]
  residual activity: 100%
[43]
  residual activity: 98%
[44]
  residual activity: 100%
[45]
  residual activity: 100%

## CO[C@H]1CC[C@H](CNc2ccc(S(=O)(=O)NC(=O)c3ccc(N4CCN(CC5=C(c6ccc(Cl)cc6)CC(C)(C)CC5)CC4)cc3Oc3cnc4[nH]ccc4c3)cc2[N+](=O)[O-])CC1 [A-1211212]
[1]
  residual activity: 99%
[2]
  residual activity: 89%
[3]
  residual activity: 96%
[4]
  residual activity: 94%
[5]
  residual activity: 100%
[6]
  residual activity: 89%
[7]
  residual activity: 96%
[8]
  residual activity: 90%
[9]
  % Inhibition of Control Specific Binding (Mean n=2): 4.2%
[10]
  residual activity: 100%
[11]
  residual activity: 69%
[12]
  residual activity: 99%
[13]
  residual activity: 85%
[14]
  residual activity: 83%
[15]
  % Inhibition of Control Specific Binding (Mean n=2): -4.4%
[16]
  residual activity: 89%
[17]
  residual activity: 83%
[18]
  % Inhibition of Control Specific Binding (Mean n=2): 11.4%
[19]
  residual activity: 77%
[20]
  residual activity: 100%
[21]
  residual activity: 50%
[22]
  residual activity: 94%
[23]
  residual activity: 90%
[24]
  residual activity: 87%
[25]
  residual activity: 93%
[26]
  residual activity: 81%
[27]
  residual activity: 100%
[28]
  residual activity: 100%
[29]
  residual activity: 90%
[30]
  residual activity: 90%
[31]
  residual activity: 80%
[32]
  residual activity: 90%
[33]
  residual activity: 80%
[34]
  % Inhibition of Control Values (Mean n=2): -72.6%
[35]
  % Inhibition of Control Specific Binding (Mean n=2): -20.5%
[36]
  residual activity: 79%
[37]
  residual activity: 71%
[38]
  residual activity: 100%
[39]
  EC50: > 5 µM (not active)
[40]
  residual activity: 100%
[41]
  residual activity: 64%
[42]
  residual activity: 84%
[43]
  residual activity: 94%
[44]
  residual activity: 87%
[45]
  residual activity: 100%

Reference: ChEMBL document CHEMBL4507310, “Data for DCP probe A-1211212” (2021)
